Patent US20130203649A1, “INHIBITORS OF TLR SIGNALING BY TARGETING TIR DOMAIN INTERFACES” (UNIVERSITY OF MARYLAND, BALTIMORE, priority 2012, published 2013)
No end group written: not given here.

Legend:
[1] = biological target: T1, TLR4/TRAM (Mus musculus, UniProt Q9QUK6); assay: TLR4/TRAM coimmunoprecipitation in transfected HEK293T cells; type: cell-based; conditions: 20 μM peptide, 1 h
T1 construct: TLR4-Cer expression vector was described earlier (1); expressed in transfected cells; host or cells: HEK293T
T1 sequence (Q9QUK6 26-835): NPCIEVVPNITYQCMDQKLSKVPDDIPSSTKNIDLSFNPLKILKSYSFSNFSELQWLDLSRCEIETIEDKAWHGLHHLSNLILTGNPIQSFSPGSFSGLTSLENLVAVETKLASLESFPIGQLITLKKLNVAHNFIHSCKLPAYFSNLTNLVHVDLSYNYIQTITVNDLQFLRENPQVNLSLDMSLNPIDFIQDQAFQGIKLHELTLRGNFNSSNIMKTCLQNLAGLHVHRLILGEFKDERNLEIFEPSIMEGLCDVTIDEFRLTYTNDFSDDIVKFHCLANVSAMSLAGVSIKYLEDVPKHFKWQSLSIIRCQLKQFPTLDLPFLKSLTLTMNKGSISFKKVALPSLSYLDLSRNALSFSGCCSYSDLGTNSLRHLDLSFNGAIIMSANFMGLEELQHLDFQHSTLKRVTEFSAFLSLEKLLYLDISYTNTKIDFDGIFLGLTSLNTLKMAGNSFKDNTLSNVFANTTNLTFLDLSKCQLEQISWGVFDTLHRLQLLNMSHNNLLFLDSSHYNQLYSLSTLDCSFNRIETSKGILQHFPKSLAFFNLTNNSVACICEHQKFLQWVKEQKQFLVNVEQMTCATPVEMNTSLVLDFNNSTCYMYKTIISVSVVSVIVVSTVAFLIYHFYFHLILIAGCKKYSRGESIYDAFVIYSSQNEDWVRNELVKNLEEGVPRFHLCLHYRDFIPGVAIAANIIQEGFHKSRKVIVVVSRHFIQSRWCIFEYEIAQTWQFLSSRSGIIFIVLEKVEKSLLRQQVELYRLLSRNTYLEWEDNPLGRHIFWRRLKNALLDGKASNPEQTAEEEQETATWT
Experimental: (§1) FIG. 9. TM4, TM6, and TR6 block adapter recruitment to TLR4. (A) A total of 6×10^5 HEK293T cells was transfected with 1 μg pcDNA3.1-mTLR4-Cer and pEF-BOS-mTRAM-HA. Twenty-four hours posttransfection, the cells were treated with 20 μM of each peptide for 1 h. Cell lysates were immunoprecipitated with anti-GFP Ab and blotted with anti-HA-HRP. (B) A total of 2×10^6 mouse peritoneal macrophages was pretreated with 20 μM of each peptide for 30 min prior to stimulation with 100 ng/ml LPS. Cell extracts were obtained 30 min after LPS treatment, immunoprecipitated with goat anti-TLR4 Ab, and blotted with rabbit anti-MyD88 or anti-TLR4 Ab. Data are representative of three independent experiments.
(§2) HEK293T cells were transfected with indicated plasmids using Superfect Transfection Reagent (Qiagen). […] Protein was quantified using Bio-Rad protein quantification kit. Equal amount of protein was loaded and analyzed by 10% SDS-PAGE and immunoblotting. The cell extracts containing equal amount of protein were incubated with 1 μg Ab for 2 h, followed by 4-h incubation with 25 μl protein G agarose beads (Roche); the beads were then washed four times with lysis buffer, boiled in […] sample loading buffer, and analyzed by immunoblotting. […]

[2] = tested on: TLR4/MyD88; assay: LPS-induced TLR4/MyD88 coimmunoprecipitation in mouse peritoneal macrophages; type: cell-based; conditions: 20 μM peptide 30 min before LPS 100 ng/ml
Experimental: as §1, §2

For RQIKIWFQNRRMKWKKPGFLRDPWCKYQML [TR6], the TLR4/TRAM coimmunoprecipitation [1] was “inhibited TLR4/TRAM association, although less efficiently than TM6” and the “LPS-induced TLR4/MyD88 association” value [2] was “efficiently prevented”.
